Source: ChEMBL document CHEMBL5579889, “Structure-Based Design and Development of Phosphine Oxides as a Novel Chemotype for Antibiotics that Dysregulate Bacterial ClpP Proteases” (J Med Chem, 2024)
≈ marks a conversion by molar mass, not a printed value. One block for each molecule: values may come before it. Calls of active or inactive are those of the source. No cut-off for these calls is given here.

How the values were obtained:
[1] = biological target: T1, ATP-dependent Clp protease proteolytic subunit (Staphylococcus aureus (strain NCTC 8325)) (UniProt Q2G036); experiment: Activation of N-terminal His-tagged recombinant Staphylococcus aureus ClpP expressed in Escherichia coli SG1146(DE3) assessed as degradation of casein-FITC at 100 uM preincubated for 10 mins followed by casein addition measured for over 100 mins by fluorescence based assay; settings: time > 110.0 min
T1 sequence (whole entry): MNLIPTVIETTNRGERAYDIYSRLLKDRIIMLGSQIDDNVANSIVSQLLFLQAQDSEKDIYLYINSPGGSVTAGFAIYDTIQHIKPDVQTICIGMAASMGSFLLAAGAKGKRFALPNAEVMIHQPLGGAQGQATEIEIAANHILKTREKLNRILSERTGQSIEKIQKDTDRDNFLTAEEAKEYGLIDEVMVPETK

Streptococcus pneumoniae = experiment: Activation of recombinant Streptococcus pneumoniae ClpP extracted from Escherichia coli SG1146(DE3) assessed as degradation of casein-FITC at 100 uM preincubated for 10 mins followed by casein addition measured for over 100 mins by fluorescence based assay; settings: time > 110.0 min
[2] = biological target: ATP-dependent Clp protease proteolytic subunit, mitochondrial (Homo sapiens) (UniProt Q16740); experiment: Activation of N-terminal His-tagged recombinant human ClpP expressed in Escherichia coli SG1146(DE3) assessed as degradation of casein-FITC at 100 uM preincubated for 10 mins followed by casein addition measured for over 100 mins by fluorescence based assay; settings: time > 110.0 min
Sequence of ATP-dependent Clp protease proteolytic subunit, mitochondrial (Homo sapiens) (Q16740 whole entry): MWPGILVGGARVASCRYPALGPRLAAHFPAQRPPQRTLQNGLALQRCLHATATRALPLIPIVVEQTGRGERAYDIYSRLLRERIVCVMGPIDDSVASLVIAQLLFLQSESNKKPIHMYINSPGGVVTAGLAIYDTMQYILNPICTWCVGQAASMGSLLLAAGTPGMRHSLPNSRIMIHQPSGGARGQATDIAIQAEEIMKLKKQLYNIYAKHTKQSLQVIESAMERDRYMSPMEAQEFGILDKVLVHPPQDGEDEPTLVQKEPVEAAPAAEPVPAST

[3] = biological target: ATP-dependent Clp protease proteolytic subunit (Escherichia coli (strain K12)) (UniProt P0A6G7); experiment: Activation of N-terminal His-tagged recombinant Escherichia coli ClpP expressed in Escherichia coli SG1146(DE3) assessed as degradation of casein-FITC at 100 uM preincubated for 10 mins followed by casein addition measured for over 100 mins by fluorescence based assay; settings: filed as activator, time > 110.0 min
Sequence of ATP-dependent Clp protease proteolytic subunit (Escherichia coli (strain K12)) (P0A6G7 whole entry): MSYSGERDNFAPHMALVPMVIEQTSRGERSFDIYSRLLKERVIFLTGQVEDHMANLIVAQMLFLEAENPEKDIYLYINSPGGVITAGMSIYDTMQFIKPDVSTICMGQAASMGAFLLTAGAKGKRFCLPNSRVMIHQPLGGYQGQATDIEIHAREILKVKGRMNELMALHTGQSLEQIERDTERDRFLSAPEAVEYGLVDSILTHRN

[4] = biological target: ATP-dependent Clp protease proteolytic subunit (Neisseria gonorrhoeae) (UniProt Q5F914); experiment: Activation of N-terminal His-tagged recombinant Neisseria gonorrhoeae ClpP expressed in Escherichia coli SG1146(DE3) assessed as degradation of casein-FITC at 100 uM preincubated for 10 mins followed by casein addition measured for over 100 mins by fluorescence based assay; settings: time > 110.0 min
Sequence of ATP-dependent Clp protease proteolytic subunit (Neisseria gonorrhoeae) (Q5F914 whole entry): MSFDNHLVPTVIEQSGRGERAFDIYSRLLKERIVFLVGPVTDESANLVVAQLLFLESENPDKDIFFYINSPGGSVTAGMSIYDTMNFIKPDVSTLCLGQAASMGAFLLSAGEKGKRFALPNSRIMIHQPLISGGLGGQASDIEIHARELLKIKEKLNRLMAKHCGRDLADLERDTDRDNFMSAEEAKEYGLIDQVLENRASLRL

[5] = biological target: ATP-dependent Clp protease proteolytic subunit (Escherichia coli (strain K12), UniProt P0A6G7); experiment: Activation of N-terminal His-tagged recombinant Escherichia coli ClpP expressed in Escherichia coli SG1146(DE3) assessed as degradation of casein-FITC preincubated for 10 mins followed by casein addition measured for over 100 mins by fluorescence based assay
Sequence of ATP-dependent Clp protease proteolytic subunit (Escherichia coli (strain K12), UniProt P0A6G7) (P0A6G7 whole entry): as the sequence (P0A6G7 whole entry) above

Neisseria gonorrhoeae [6] = experiment: Antibacterial activity against Neisseria gonorrhoeae MS11 measured after 16 to 18 hrs by OD based assay; type: functional; settings: time 16-18 hrs
Neisseria gonorrhoeae [7] = experiment: Antibacterial activity against Neisseria gonorrhoeae FA19 measured after 16 to 18 hrs by OD based assay; type: functional; settings: time 16-18 hrs
Neisseria gonorrhoeae [8] = experiment: Antibacterial activity against Neisseria gonorrhoeae WHO G measured after 16 to 18 hrs by OD based assay; type: functional; settings: time 16-18 hrs
Neisseria gonorrhoeae [9] = experiment: Antibacterial activity against Neisseria gonorrhoeae WHO K measured after 16 to 18 hrs by OD based assay; type: functional; settings: time 16-18 hrs
Neisseria gonorrhoeae [10] = experiment: Antibacterial activity against Neisseria gonorrhoeae WHO L measured after 16 to 18 hrs by OD based assay; type: functional; settings: time 16-18 hrs
Neisseria gonorrhoeae [11] = experiment: Antibacterial activity against Neisseria gonorrhoeae WHO M measured after 16 to 18 hrs by OD based assay; type: functional; settings: time 16-18 hrs
Neisseria gonorrhoeae [12] = experiment: Antibacterial activity against Neisseria gonorrhoeae WHO N measured after 16 to 18 hrs by OD based assay; type: functional; settings: time 16-18 hrs
Neisseria gonorrhoeae [13] = experiment: Antibacterial activity against Neisseria gonorrhoeae WHO P measured after 16 to 18 hrs by OD based assay; type: functional; settings: time 16-18 hrs
Neisseria gonorrhoeae [14] = experiment: Antibacterial activity against Neisseria gonorrhoeae WHO V measured after 16 to 18 hrs by OD based assay; type: functional; settings: time 16-18 hrs
Neisseria gonorrhoeae [15] = experiment: Antibacterial activity against Neisseria gonorrhoeae WHO X measured after 16 to 18 hrs by OD based assay; type: functional; settings: time 16-18 hrs
Neisseria gonorrhoeae [16] = experiment: Antibacterial activity against Neisseria gonorrhoeae WHO Y measured after 16 to 18 hrs by OD based assay; type: functional; settings: time 16-18 hrs
Neisseria gonorrhoeae [17] = experiment: Antibacterial activity against Neisseria gonorrhoeae WHO Z measured after 16 to 18 hrs by OD based assay; type: functional; settings: time 16-18 hrs
Neisseria meningitidis [18] = experiment: Antibacterial activity against wild-type Neisseria meningitidis H44/76 measured after 16 to 18 hrs by OD based assay; type: functional; settings: time 16-18 hrs
Neisseria meningitidis [19] = experiment: Antibacterial activity against Neisseria meningitidis H44/76 harboring deltaclpP measured after 16 to 18 hrs by OD based assay; type: functional; settings: time 16-18 hrs
Neisseria meningitidis [20] = experiment: Antibacterial activity against Neisseria meningitidis EG329 measured after 16 to 18 hrs by OD based assay; type: functional; settings: time 16-18 hrs
Neisseria meningitidis [21] = experiment: Antibacterial activity against Neisseria meningitidis BZ169 measured after 16 to 18 hrs by OD based assay; type: functional; settings: time 16-18 hrs
Neisseria meningitidis [22] = experiment: Antibacterial activity against Neisseria meningitidis NGPB24 measured after 16 to 18 hrs by OD based assay; type: functional; settings: time 16-18 hrs
Neisseria meningitidis [23] = experiment: Antibacterial activity against Neisseria meningitidis AK50 measured after 16 to 18 hrs by OD based assay; type: functional; settings: time 16-18 hrs
Neisseria meningitidis [24] = experiment: Antibacterial activity against Neisseria meningitidis 88/03415 measured after 16 to 18 hrs by OD based assay; type: functional; settings: time 16-18 hrs
Neisseria meningitidis [25] = experiment: Antibacterial activity against Neisseria meningitidis BZ133 measured after 16 to 18 hrs by OD based assay; type: functional; settings: time 16-18 hrs
Neisseria meningitidis [26] = experiment: Antibacterial activity against Neisseria meningitidis SWZ107 measured after 16 to 18 hrs by OD based assay; type: functional; settings: time 16-18 hrs
Neisseria meningitidis [27] = experiment: Antibacterial activity against Neisseria meningitidis NGF26 measured after 16 to 18 hrs by OD based assay; type: functional; settings: time 16-18 hrs
Neisseria meningitidis [28] = experiment: Antibacterial activity against Neisseria meningitidis NG144/82 measured after 16 to 18 hrs by OD based assay; type: functional; settings: time 16-18 hrs
[29] = biological target: ATP-dependent Clp protease proteolytic subunit (Neisseria gonorrhoeae, UniProt Q5F914); experiment: Activation of N-terminal His-tagged recombinant Neisseria gonorrhoeae ClpP expressed in Escherichia coli SG1146(DE3) assessed as degradation of casein-FITC preincubated for 10 mins followed by casein addition measured for over 100 mins by fluorescence based assay
Sequence of ATP-dependent Clp protease proteolytic subunit (Neisseria gonorrhoeae, UniProt Q5F914) (Q5F914 whole entry): as the sequence (Q5F914 whole entry) above

- Activity [1]: inactive
- Activity (Streptococcus pneumoniae): inactive
- Activity [2]: inactive
SMILES: CC(C(=O)NCCSc1ccccc1C(F)(F)F)P(=O)(c1ccccn1)c1ccccn1 (stereo unspecified)

- Activity [3]: Active
- Activity [4]: inactive
- EC50 [5]: 4450 nM
SMILES: CC(C(=O)NCCSc1ccccc1C(F)(F)F)P(=O)(c1ccc(C(F)(F)F)cc1)c1ccc(C(F)(F)F)cc1 (stereo unspecified)

SMILES: CCCC/C=C/C(=O)N[C@@H](Cc1ccccc1)C(=O)N[C@H]1COC(=O)[C@@H]2CCCN2C(=O)[C@H](C)NC(=O)[C@@H]2CCCCN2C(=O)[C@@H]2CCCN2C1=O
- Activity [1]: inactive
- Activity (Streptococcus pneumoniae): inactive

SMILES: CC(C(=O)NCCSc1ccccc1Cl)P(=O)(c1ccccc1)c1ccccc1 (stereo unspecified)
- MIC (Neisseria gonorrhoeae [6]): 3.1 µM (≈ 1.38 µg/mL)
- MIC (Neisseria gonorrhoeae [7]): 3.1 µM (≈ 1.38 µg/mL)
- MIC (Neisseria gonorrhoeae [8]): 1.6 µM (≈ 0.71 µg/mL)
- MIC (Neisseria gonorrhoeae [9]): 1.6 µM (≈ 0.71 µg/mL)
- MIC (Neisseria gonorrhoeae [10]): 3.1 µM (≈ 1.38 µg/mL)
- MIC (Neisseria gonorrhoeae [11]): 1.6 µM (≈ 0.71 µg/mL)
- MIC (Neisseria gonorrhoeae [12]): 1.6 µM (≈ 0.71 µg/mL)
- MIC (Neisseria gonorrhoeae [13]): 3.1 µM (≈ 1.38 µg/mL)
- MIC (Neisseria gonorrhoeae [14]): 3.1 µM (≈ 1.38 µg/mL)
- MIC (Neisseria gonorrhoeae [15]): 4.7 µM (≈ 2.09 µg/mL)
- MIC (Neisseria gonorrhoeae [16]): 12.5 µM (≈ 5.55 µg/mL)
- MIC (Neisseria gonorrhoeae [17]): 1.6 µM (≈ 0.71 µg/mL)
- MIC (Neisseria meningitidis [18]): 1 µM (≈ 0.444 µg/mL)
- MIC (Neisseria meningitidis [19]): > 25 µM
- MIC (Neisseria meningitidis [20]): 1.7 µM (≈ 0.755 µg/mL)
- MIC (Neisseria meningitidis [21]): 1 µM (≈ 0.444 µg/mL)
- MIC (Neisseria meningitidis [22]): 3.1 µM (≈ 1.38 µg/mL)
- MIC (Neisseria meningitidis [23]): 4.7 µM (≈ 2.09 µg/mL)
- MIC (Neisseria meningitidis [24]): 1.6 µM (≈ 0.71 µg/mL)
- MIC (Neisseria meningitidis [25]): 2.4 µM (≈ 1.07 µg/mL)
- MIC (Neisseria meningitidis [26]): 0.3 µM (≈ 0.133 µg/mL)
- MIC (Neisseria meningitidis [27]): 1.6 µM (≈ 0.71 µg/mL)
- MIC (Neisseria meningitidis [28]): 0.3 µM (≈ 0.133 µg/mL)

- Activity [1]: inactive
- Activity (Streptococcus pneumoniae): inactive
- Activity [2]: inactive
- EC50 [5]: 2050 nM
- EC50 [29]: 2750 nM
SMILES: CC(C(=O)NCCSc1ccccc1C(F)(F)F)P(=O)(c1ccc(C(F)(F)F)cn1)c1ccc(C(F)(F)F)cn1 (stereo unspecified)

- Activity [1]: inactive
- Activity (Streptococcus pneumoniae): inactive
- Activity [2]: inactive
- EC50 [5]: 1790 nM
- EC50 [29]: 4900 nM
SMILES: O=C(CP(=O)(c1ccc(C(F)(F)F)cn1)c1ccc(C(F)(F)F)cn1)NCCSc1ccccc1C(F)(F)F
